In brackets after ≈: the same amount, converted by molar mass. Residues, ends and D or L forms follow the SMILES beside them.
Assays:
K. aerogenes ATCC 13048 = type: cell-based, Klebsiella aerogenes; conditions: ATCC 13048, 18 h
Text: (§1) The Acinetobacter baumannii ATCC BAA-1605, Candida albicans ATCC 10231, Enterococcus faecium ATCC 700221, Klebsiella aerogenes ATCC 13048 (previously known as Enterobacter aerogenes), Klebsiella pneumoniae ATCC 700603, Pseudomonas aeruginosa ATCC 9027, Staphylococcus aureus ATCC 25923 and MRSA ATCC 33591, were acquired from the American Type Culture Collection (ATCC). Before running the tests, beads with cryo-protected microorganisms were transferred into fresh MHB (BioMaxima, Lublin, Poland) for bacteria or RPMI-1640 for fungi and incubated for 24 h at 37 °C. Then, the culture was seeded on the Mueller-Hinton agar (MHA) plates (BioMaxima, Lublin, Poland) for bacteria or Sabouraud dextrose agar (SDA) plates (BioMaxima, Lublin, Poland) for fungi and incubated as just mentioned. Cell densities for all assays were adjusted spectrophotometrically (Multiskan™ GO Microplate Spectrophotometer, Thermo Fisher Scientific, Vantaa, Finland) at 600 nm for bacteria and at 530 nm for fungi.
(§2) The MICs were determined by broth microdilution method according to the Clinical and Laboratory Standard Institute guidelines. For this purpose initial inoculums of bacteria (5 × 10^5 CFU/mL) in MHB (BioMaxima, Lublin, Poland) and fungi (2 × 10^3 CFU/mL) in RPMI-1640 with 2% D-glucose (Merck, Darmstadt, Germany) prepared with MOPS (pH 7.0 ± 0.1 at 25 °C; Merck, Darmstadt, Germany) were exposed to the ranging concentration of lipopeptides (0.5–256 µg/mL) and incubated at 37 °C for 18 h and 24 h respectively. The experiments were conducted on 96-well microtiter polystyrene plates (Kartell, Italy). The MIC was taken as the lowest peptide concentration at which a noticeable growth of microorganisms was inhibited. All experiments were conducted in triplicate.

[1] = system: A. baumannii ATCC BAA-1605; type: cell-based, Acinetobacter baumannii; conditions: ATCC BAA-1605, 18 h
Text: as §1, §2

C. albicans ATCC 10231 = type: cell-based, Candida albicans; conditions: ATCC 10231, 24 h, pH 7
Text: as §1, §2

[2] = system: S. aureus ATCC 33591 (MRSA); type: cell-based, Staphylococcus aureus; conditions: ATCC 33591, 18 h
Text: as §1, §2

S. aureus ATCC 25923 = type: cell-based, Staphylococcus aureus; conditions: ATCC 25923, 18 h
Text: as §1, §2

E. faecium ATCC 700221 = type: cell-based, Enterococcus faecium; conditions: ATCC 700221, 18 h
Text: as §1, §2

[3] = system: human red blood cells (hRBCs); type: cell-based; conditions: red cells of human, 1 h
Description: The hemolysis assay was performed as described earlier according to the method of Avrahami and Shai. Fresh human red blood cells (hRBCs) with anticoagulant (EDTA) were rinsed three times with a PBS (Merck, Darmstadt, Germany) by centrifugation at 800× g for 10 min and resuspended in PBS. Lipopeptides were serially diluted on 96-well microtiter polystyrene plate and hRBCs were added to reach final volume of 100 µL. Peptide concentration ranged between 0.5 and 256 µg/mL and final hRBCs concentration was 4% (v/v). Controls for zero hemolysis (blank) and 100% hemolysis consisted of hRBCs suspended in PBS and 1% of Triton-X 100 (Merck, Darmstadt, Germany), respectively. The plate was incubated for 1 h at 37 °C and then centrifuged (800× g, 10 min, 4 °C). Subsequently, supernatant was […] to new microtiter plates and absorbance at 540 nm were measured. All experiments were conducted in triplicate. Protocol of the study received approval from the local Bioethics Committee at the Medical University of Gdańsk (NKBBN/262/2019).

[4] = system: K. pneumoniae ATCC 700603; type: cell-based, Klebsiella pneumoniae; conditions: ATCC 700603, 18 h
Text: as §1, §2

[5] = Determination of peptide hydrophobicity with RP-HPLC (adjusted retention time); type: physicochemical; conditions: RP-HPLC C18, linear 10–55% acetonitrile over 60 min, 0.1% TFA, 25.0 °C, UV 214 nm, triplicate; for tR’: Table 3, adjusted retention time as hydrophobicity
Description: To determine peptide hydrophobicity, the Waters Alliance e2695 system with a Waters 2998 PDA Detector (software-Empower®3) was used. All analyses were carried out on a Phenomenex Luna C18(2) column (3.0 × 100 mm, 5 µm particle size, 100 Å pore size). The peptides were dissolved in water (0.1% TFA, v/v) to obtain a concentration of 1 g/L. UV detection at 214 nm was used, and aliquots (10 µL) were eluted with a linear 10–55% acetonitrile gradient in deionized water over 60 min at 25.0 ± 0.1 °C. The mobile phase flow rate was 0.5 mL/min. Both eluents contained 0.1% (v/v) of TFA. Each peptide sample was analyzed in triplicate.

P. aeruginosa ATCC 9027 = type: cell-based, Pseudomonas aeruginosa; conditions: ATCC 9027, 18 h
Text: as §1, §2

| Compound | MIC E2 (K. aerogenes ATCC 13048) | MIC A [1] [µg/mL] | MIC CA (C. albicans ATCC 10231) [µg/mL] | MIC S [2] | MIC SA (S. aureus ATCC 25923) | MIC E1 (E. faecium ATCC 700221) | HC50 [3] | MIC K [4] | tR’ [5] [min] | MIC PA (P. aeruginosa ATCC 9027) [µg/mL] | Adjusted retention time ([5]; Table 2, nC = carbon atoms in fatty acid chain) [min] |
| --- | --- | --- | --- | --- | --- | --- | --- | --- | --- | --- | --- |
| CCCCCCCCCCCCCC(=O)NCC(=O)N[C@@H](CCCNC(=N)N)C(=O)N[C@@H](CCCNC(=N)N)C(N)=O [compound 30, C14-GRR-NH2] | 256 µg/mL (≈ 429 µM) | 64 (≈ 107 µM) | 16 (≈ 26.8 µM) | 8 µg/mL (≈ 13.4 µM) | 8 µg/mL (≈ 13.4 µM) | 8 µg/mL (≈ 13.4 µM) | 31.94 (±1.99) µg/mL | 256 µg/mL (≈ 429 µM) | 40.53 | 32 (≈ 53.6 µM) |  |
| CCCCCCCCCCCCCC(=O)N[C@H](C(=O)N[C@@H](CCCNC(=N)N)C(=O)N[C@@H](CCCNC(=N)N)C(N)=O)[C@@H](C)CC [compound 38, C14-IRR-NH2] (HELM PEPTIDE1{[CCCCCCCCCCCCCC(=O)[*:2]].I.R.R.[am]}$$$$V2.0) | 64 µg/mL (≈ 98 µM) | 64 (≈ 98 µM) | 4 (≈ 6.13 µM) | 4 µg/mL (≈ 6.13 µM) | 4 µg/mL (≈ 6.13 µM) | 4 µg/mL (≈ 6.13 µM) | 78.92 (±4.38) µg/mL | 64 µg/mL (≈ 98 µM) | 45.65 | 4 (≈ 6.13 µM) | 45.650 |
| CCCCCCCCCCCCCC(=O)N[C@H](C(=O)N[C@@H](CCCNC(=N)N)C(=O)N[C@@H](CCCNC(=N)N)C(N)=O)C(C)C [compound 94, C14-VRR-NH2] (HELM PEPTIDE1{[CCCCCCCCCCCCCC(=O)[*:2]].V.R.R.[am]}$$$$V2.0) | 128 µg/mL (≈ 200 µM) | 32 (≈ 50.1 µM) | 8 (≈ 12.5 µM) | 4 µg/mL (≈ 6.26 µM) | 4 µg/mL (≈ 6.26 µM) | 16 µg/mL (≈ 25 µM) | 30.73 (±0.41) µg/mL | 128 µg/mL (≈ 200 µM) | 44.02 | 8 (≈ 12.5 µM) |  |
| CCCCCCCCCCCCCCCCCC(=O)N[C@@H](CCCNC(=N)N)C(=O)N[C@@H](CCCNC(=N)N)C(N)=O [compound 6, C18-RR-NH2, reference compound] (HELM PEPTIDE1{[CCCCCCCCCCCCCCCCCC(=O)[*:2]].R.R.[am]}$$$$V2.0) | 16 µg/mL (≈ 26.9 µM) | 32 (≈ 53.7 µM) | 4 (≈ 6.71 µM) | 16 µg/mL (≈ 26.9 µM) | 16 µg/mL (≈ 26.9 µM) | 8 µg/mL (≈ 13.4 µM) | 25.19 (±0.67) µg/mL | 16 µg/mL (≈ 26.9 µM) | 53.39 | 64 (≈ 107 µM) |  |
| CCCCCCCCCC(=O)N[C@@H](Cc1c[nH]c2ccccc12)C(=O)N[C@@H](CCCNC(=N)N)C(=O)N[C@@H](CCCNC(=N)N)C(N)=O [compound 96, C10-WRR-NH2] (HELM PEPTIDE1{[CCCCCCCCCC(=O)[*:2]].W.R.R.[am]}$$$$V2.0) | >256 (-) µg/mL | 64 (≈ 95.5 µM) | 32 (≈ 47.8 µM) | 16 (>16) µg/mL | 16 (>16) µg/mL | 16 (>16) µg/mL | >256 µg/mL | >256 (-) µg/mL | 34.31 | 32 (≈ 47.8 µM) |  |
| CCCCCCCCCCCCCC(=O)N[C@@H](CC(N)=O)C(=O)N[C@@H](CCCNC(=N)N)C(=O)N[C@@H](CCCNC(=N)N)C(N)=O [compound 62, C14-NRR-NH2] (HELM PEPTIDE1{[CCCCCCCCCCCCCC(=O)[*:2]].N.R.R.[am]}$$$$V2.0) | 128 µg/mL (≈ 196 µM) | 32 (≈ 48.9 µM) | 16 (≈ 24.5 µM) | 16 µg/mL (≈ 24.5 µM) | 16 µg/mL (≈ 24.5 µM) | 8 µg/mL (≈ 12.2 µM) | 64.37 (±2.23) µg/mL | 128 µg/mL (≈ 196 µM) | 38.71 | 32 (≈ 48.9 µM) |  |
| CCCCCCCCCCCCCC(=O)N[C@@H](CO)C(=O)N[C@@H](CCCNC(=N)N)C(=O)N[C@@H](CCCNC(=N)N)C(N)=O [compound 86, C14-SRR-NH2] (HELM PEPTIDE1{[CCCCCCCCCCCCCC(=O)[*:2]].S.R.R.[am]}$$$$V2.0) | 128 µg/mL (≈ 204 µM) | 32 (≈ 51 µM) | 32 (≈ 51 µM) | 16 µg/mL (≈ 25.5 µM) | 16 µg/mL (≈ 25.5 µM) | 16 µg/mL (≈ 25.5 µM) | 41.54 (±1.29) µg/mL | 128 µg/mL (≈ 204 µM) | 39.72 | 32 (≈ 51 µM) |  |
| CCCCCCCCCCCC(=O)N[C@@H](Cc1c[nH]c2ccccc12)C(=O)N[C@@H](CCCNC(=N)N)C(=O)N[C@@H](CCCNC(=N)N)C(N)=O [compound 97, C12-WRR-NH2] (HELM PEPTIDE1{[CCCCCCCCCCCC(=O)[*:2]].W.R.R.[am]}$$$$V2.0) | 256 µg/mL (≈ 367 µM) | 32 (≈ 45.8 µM) | 8 (≈ 11.5 µM) | 2 µg/mL (≈ 2.87 µM) | 4 µg/mL (≈ 5.73 µM) | 8 µg/mL (≈ 11.5 µM) | 42.42 (±0.57) µg/mL | 256 µg/mL (≈ 367 µM) | 40.79 | 8 (≈ 11.5 µM) |  |

— article PMC7024302, “Ultrashort Cationic Lipopeptides–Effect of N-Terminal Amino Acid and Fatty Acid Type on Antimicrobial Activity and Hemolysis” (Molecules, 2020)
